In ChEMBL document CHEMBL6109067, “Isolation, synthesis and structure-activity relationships of gallotannin derivatives as cathepsin C inhibitor” (Bioorg Med Chem Lett, 2025):

Assays:
Dipeptidyl peptidase 1 = Dipeptidyl peptidase 1 (Homo sapiens, UniProt P53634); test: Inhibition of Cathepsin C (unknown origin)
Procathepsin L = Procathepsin L (Homo sapiens, UniProt P07711); test: Inhibition of Cathepsin L (unknown origin)
Cathepsin S = Cathepsin S (Homo sapiens, UniProt P25774); test: Inhibition of Cathepsin S (unknown origin)
Cathepsin K = biological target: T1, Cathepsin K (Homo sapiens, UniProt P43235); test: Inhibition of Cathepsin K (unknown origin)
T1 sequence (P43235 whole entry): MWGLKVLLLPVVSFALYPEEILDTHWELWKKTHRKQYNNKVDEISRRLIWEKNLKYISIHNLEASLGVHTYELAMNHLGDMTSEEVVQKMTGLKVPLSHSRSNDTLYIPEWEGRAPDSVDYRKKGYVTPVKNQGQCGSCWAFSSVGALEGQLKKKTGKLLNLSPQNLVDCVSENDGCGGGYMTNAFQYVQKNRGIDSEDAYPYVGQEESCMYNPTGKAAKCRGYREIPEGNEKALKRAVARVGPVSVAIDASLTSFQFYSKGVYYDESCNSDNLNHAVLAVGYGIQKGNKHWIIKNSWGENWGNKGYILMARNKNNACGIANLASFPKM

Sequence of Dipeptidyl peptidase 1 (P53634 25-134 limits assumed): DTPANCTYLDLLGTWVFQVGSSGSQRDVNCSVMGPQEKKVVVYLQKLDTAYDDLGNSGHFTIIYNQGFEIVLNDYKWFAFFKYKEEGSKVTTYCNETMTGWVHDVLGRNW
Sequence of Dipeptidyl peptidase 1 (P53634 231-394 limits assumed): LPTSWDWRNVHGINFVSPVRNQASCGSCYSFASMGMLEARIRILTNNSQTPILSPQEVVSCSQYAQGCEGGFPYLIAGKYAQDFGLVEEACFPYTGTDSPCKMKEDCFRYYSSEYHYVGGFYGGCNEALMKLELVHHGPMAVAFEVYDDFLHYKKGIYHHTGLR
Sequence of Dipeptidyl peptidase 1 (P53634 395-463 limits assumed): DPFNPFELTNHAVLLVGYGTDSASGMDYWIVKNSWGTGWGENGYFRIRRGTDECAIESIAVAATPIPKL
Sequence of Cathepsin S (P25774 whole entry): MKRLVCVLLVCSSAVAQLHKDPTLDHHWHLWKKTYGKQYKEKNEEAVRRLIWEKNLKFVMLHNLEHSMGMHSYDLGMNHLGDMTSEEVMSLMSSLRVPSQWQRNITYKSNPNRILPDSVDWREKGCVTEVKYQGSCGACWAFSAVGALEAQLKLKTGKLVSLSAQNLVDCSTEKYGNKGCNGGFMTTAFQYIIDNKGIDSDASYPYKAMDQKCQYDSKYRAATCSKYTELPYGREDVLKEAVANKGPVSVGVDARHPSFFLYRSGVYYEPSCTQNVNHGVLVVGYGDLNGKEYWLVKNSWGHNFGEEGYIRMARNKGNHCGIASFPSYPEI
Sequence of Procathepsin L (P07711 whole entry): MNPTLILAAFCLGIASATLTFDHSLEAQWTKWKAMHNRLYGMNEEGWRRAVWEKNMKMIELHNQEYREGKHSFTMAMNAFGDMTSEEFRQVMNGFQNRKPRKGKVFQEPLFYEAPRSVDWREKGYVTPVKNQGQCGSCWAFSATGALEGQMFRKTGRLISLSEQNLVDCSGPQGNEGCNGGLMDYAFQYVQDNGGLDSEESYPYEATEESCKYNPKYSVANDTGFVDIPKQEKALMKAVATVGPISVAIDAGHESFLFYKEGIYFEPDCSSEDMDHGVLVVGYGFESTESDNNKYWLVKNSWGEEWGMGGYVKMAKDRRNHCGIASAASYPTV

Row | Structure (SMILES) | IC50 (Procathepsin L) [nM] | IC50 (Cathepsin S) [nM] | IC50 (Cathepsin K) [nM] | pIC50 (Dipeptidyl peptidase 1) | IC50 (Dipeptidyl peptidase 1) [nM]
1 | O=C(OC[C@H]1O[C@H](OC(=O)c2cc(O)c(O)c(O)c2)[C@H](OC(=O)c2cc(O)c(O)c(O)c2)[C@@H](OC(=O)c2cc(O)c(O)c(O)c2)[C@@H]1OC(=O)c1cc(O)c(O)c(O)c1)c1cc(O)c(O)c(O)c1 | – | – | – | – | 1990
2 | O=C(OC[C@H]1O[C@@H](OC(=O)c2cc(O)c(O)c(O)c2)[C@H](OC(=O)c2cc(O)c(O)c(O)c2)[C@@H](OC(=O)c2cc(O)c(O)c(O)c2)[C@H]1OC(=O)c1cc(O)c(O)c(O)c1)c1cc(O)c(O)c(O)c1 | – | – | – | – | 735
3 | O=C(OC[C@H]1O[C@H](OC(=O)c2cc(O)c(O)c(O)c2)[C@H](OC(=O)c2cc(O)c(O)c(O)c2)[C@@H](OC(=O)c2cc(O)c(O)c(O)c2)[C@H]1OC(=O)c1cc(O)c(O)c(O)c1)c1cc(O)c(O)c(O)c1 | – | – | – | – | 2520
4 | O=C(OC[C@H]1O[C@@H](OC(=O)c2cc(O)c(O)c(O)c2)[C@H](OC(=O)c2cc(O)c(O)c(O)c2)[C@@H](OC(=O)c2cc(O)c(O)c(O)c2)[C@@H]1O)c1cc(O)c(O)c(O)c1 | > 50000 | > 50000 | > 50000 | – | –
5 | O=C(OC[C@H]1O[C@@H](OC(=O)c2cc(O)c(O)c(O)c2)[C@H](OC(=O)c2cc(O)c(O)c(O)c2)[C@@H](OC(=O)c2cc(O)c(O)c(O)c2)[C@@H]1F)c1cc(O)c(O)c(O)c1 | 7230 | > 50000 | > 50000 | – | –
6 | O=C(OC[C@H]1O[C@@H](OC(=O)c2cc(O)c(O)c(O)c2)[C@H](OC(=O)c2cc(O)c(O)c(O)c2)[C@@H](OC(=O)c2cc(O)c(O)c(O)c2)[C@@H]1OC(=O)c1cc(O)c(O)c(O)c1)c1cc(O)c(O)c(O)c1 [PENTAGALLOYL GLUCOSE] | – | – | – | – | 695

Second part, led by results:

Row | IC50 (Procathepsin L) [nM] | IC50 (Cathepsin S) [nM] | IC50 (Cathepsin K) [nM] | pIC50 (Dipeptidyl peptidase 1) | Structure (SMILES) | IC50 (Dipeptidyl peptidase 1) [nM]
7 | – | – | – | < 5 | COc1cc(C(=O)O[C@@H]2O[C@H](CO)[C@@H](O)[C@H](OC(=O)c3cc(OC)c(OC)c(OC)c3)[C@H]2OC(=O)c2cc(OC)c(OC)c(OC)c2)cc(OC)c1OC | > 10000
8 | – | – | – | < 5 | O=C(N[C@H]1[C@@H](OC(=O)c2cc(O)c(O)c(O)c2)O[C@H](COC(=O)c2cc(O)c(O)c(O)c2)[C@@H](O)[C@@H]1OC(=O)c1cc(O)c(O)c(O)c1)c1cc(O)c(O)c(O)c1 | > 10000
9 | 7.49 | 3.58 | 1.17 | – | CC(C)C[C@H](NC(=O)[C@H]1O[C@@H]1C(=O)O)C(=O)NCCCCN=C(N)N [E-64] | 4450
